Several values for one entry are separate records, joined by “and”; a condition that tells them apart may be missing. Equal values may be shown once.
What was measured:
human 5-HT4(b) receptors [1] = target: T1, human 5-HT4(b) receptors (Homo sapiens, UniProt Q13639); assay: Adenylyl cyclase assay in membranes of HEK293 cells stably expressing human 5-HT4(b) receptors; assay type: biochemical; conditions: for Kb: each line one individual measurement, read-out: Antagonist pKb value (individual measurements) (converted)
T1 construct: expressed in transfected cells; membranes prepared
Experimental: (§1) Establishment of HEK293 Cell Lines Stably Expressing Human 5-HT4(b) Receptors
(§2) The development of HEK293 cell lines stably expressing human 5-HT4(b) receptors was described and published previously (Bach et al. 2001). Briefly, HEK293 cells (ATCC) were grown in Dulbecco's modified Eagle's medium with 10% fetal calf serum and penicillin (100 U/ml) and streptomycin (100 μg/ml). Cells were transfected with plasmid DNA (pcDNA3.1(−) containing human 5-HT4(b) receptor cDNA) using SuperFect Transfection Reagent (QIAGEN) according to the manufacturers protocol. Serial dilutions of transfected cells were plated in 96 well plates containing G418 (geneticin; Amersham) at 0.4 mg/ml, and isolated single colonies of cells transformed to the neomycin-resistant phenotype were expanded and tested for expression of serotonin receptors by measuring serotonin-stimulated adenylyl cyclase activity (Themmen et al. 1993). Transformed cells were always grown in the presence of G418 (0.4 mg/ml). For binding and adenylyl cyclase analysis, stable cell lines were grown and maintained in UltraCULTURE™ general purpose serum-free medium (BioWhittaker, Walkersville, Md., USA), supplemented with L-glutamine (2 mM), penicillin (100 U/ml) and streptomycin (100 μg/ml).
Membrane Preparation for Radioligand Binding and Adenylyl Cyclase Assay
Membranes were prepared from stably transfected HEK293 cells cultured on 150-mm cell culture dishes and grown to 80% confluence in serum-free medium (UltraCULTURE™, BioWhittaker) with penicillin (10 U/ml) and 2 mM L-Glutamine (BioWhittaker). Cells were washed twice with 10 ml ice-cold HBSS, scraped with a rubber policeman in 10 ml ice-cold HBSS and collected by centrifugation at 800 g for 5 min at 4° C. The cell pellet was resuspended in 1 ml/dish ice-cold STE buffer (27% (w/v) sucrose, 50 mM Tris-HCl, pH 7.5 at 20° C., 5 mM EDTA) and homogenized with an Ultra-Turrax (IKA) homogenizer, using five 10 s bursts with 30 s cooling in ice-water between bursts. To remove nuclei, the homogenate was centrifuged at 300 g for 5 min at 4° C. and the supernatant was further centrifuged at 17000 g for 20 min at 4° C. and the supernatant removed. The crude membrane pellet was resuspended with ten strokes of tight fitting pestle B in a Dounce glass-glass homogenizer in 1 ml/dish ice-cold TE (50 mM Tris-HCl, pH 7.5 at RT, 5 mM EDTA). This procedure was repeated twice and the resuspended membranes were finally aliquoted and flash frozen in liquid nitrogen and stored at −70° C. until use.
Adenylyl cyclase activity was measured by determining conversion of [α-^32P]ATP to [^32P]cAMP in membranes prepared in STE by homogenization of cells grown and washed as described above in a Dounce glass-glass homogenizer by 10 strokes with the tight-fitting pestle. Membranes were kept on ice prior to assay. Adenylyl cyclase activities were measured on 10-μl aliquots in a final volume of 50 μl in the presence of 0.1 mM [α-^32P]ATP (1-2×10^6 cpm/assay), 4 mM MgCl2, 20 μM GTP, 1 mM EDTA, 1 mM [^3H]cAMP (ca. 10,000 cpm/assay), 1 μM 3-isobutyl-1-methyl xanthine (IBMX; Sigma), a nucleoside triphosphate regenerating system consisting of 20 mM creatine phosphate (Sigma), 0.2 mg/ml creatine phosphokinase (Sigma) and 40 U/ml myokinase (Sigma) and additives described in the text and figures. When forskolin (Calbiochem, La Jolla, Calif., USA) was used the concentration was 100 μM. Incubations were for 20 min at 32EC. Cyclic AMP formed was quantified by the double column chromatography system of Salomon et al. (1974) as modified by Bockaert et al. (1976).
Binding and adenylyl cyclase data were analyzed by non-linear regression using Microsoft Excel with the Solver add-in, using the below equations.
Activation of adenylyl cyclase—The data were fit to the equation Y=a+(b−a)x/(c+x) where a is basal adenylyl cyclase activity, b is maximal adenylyl cyclase activity stimulated by the agonist, c is EC50, and x is the concentration of agonist.

human 5-HT4(b) receptors [2] = target: T1, human 5-HT4(b) receptors; assay: Radioligand binding assay with [3H]GR113808 on membranes of HEK293 cells stably expressing human 5-HT4(b) receptors; conditions: competition with [3H]GR113808, HEK293 membranes, each line one individual measurement, read-out: Binding affinity (pKd value) (individual measurements) (converted)
Experimental: as §1, §2
Membrane Preparation for Radioligand Binding and Adenylyl Cyclase Assay […]
Binding assays were performed in 96-well, round-bottom microtiter plates with total reaction volumes of 50-200 μl, containing the indicated concentration of [^3H]GR113808 with or without competing unlabelled ligand in a binding buffer containing 50 mM Tris-HCl (pH 7.5 at RT), 1 mM EDTA, 5 mM EGTA, 2 mM MgCl2, 1 mM ascorbate, 0.1% BSA and 100 μM GTP. […] The filters were dried and counted at approximately […] efficiency in a Top-Count liquid scintillation counter (Packard), using 20 μl per filter well of Micro-Scint liquid scintillation cocktail (Packard).
Binding and adenylyl cyclase data were analyzed by non-linear regression using Microsoft Excel with the Solver add-in, using the below equations. […]

T1 sequence (Q13639 whole entry): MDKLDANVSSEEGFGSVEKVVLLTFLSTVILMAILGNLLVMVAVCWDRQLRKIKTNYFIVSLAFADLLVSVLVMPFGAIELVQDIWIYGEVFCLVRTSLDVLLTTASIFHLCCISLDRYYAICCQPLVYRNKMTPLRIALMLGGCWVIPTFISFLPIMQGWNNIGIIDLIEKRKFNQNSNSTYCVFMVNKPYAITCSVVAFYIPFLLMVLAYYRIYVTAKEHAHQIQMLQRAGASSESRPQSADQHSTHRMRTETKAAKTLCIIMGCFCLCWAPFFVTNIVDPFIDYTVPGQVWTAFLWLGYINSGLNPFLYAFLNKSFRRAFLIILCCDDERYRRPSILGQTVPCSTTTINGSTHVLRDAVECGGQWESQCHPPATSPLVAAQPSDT

Agonist/Antagonist properties (human 5-HT4(b) receptors [1]) | Kb (human 5-HT4(b) receptors [1]) | Kd (human 5-HT4(b) receptors [2]) | SMILES
Antagonist | 129 pM | 28.2 pM and 21.9 pM | CCCCN1CCC(COC(=O)c2c[nH]c3ccccc23)CC1 [DDL-6002]
Antagonist | 132 pM and 170 pM | 17.4 pM | CCCCN1CCC(CNC(=O)c2c3n(c4ccccc24)CCCO3)CC1 [SB207266]

SMILES | Agonist/Antagonist properties (human 5-HT4(b) receptors [1]) | Kb (human 5-HT4(b) receptors [1]) | Kd (human 5-HT4(b) receptors [2])
Cn1cc(C(=O)OCC2CCN(CCNS(C)(=O)=O)CC2)c2ccccc21 [GR113808, 1-methyl-1H-indole-3-carboxylic acid, [1-[2-[(methylsulfonyl)amino]ethyl]-4-piperidinyl]methyl ester] | Antagonist | 105 pM and 135 pM and 170 pM and 224 pM and 151 pM and 178 pM | 115 pM and 49 pM and 61.7 pM and 19.5 pM

Source: patent US7834010B2, “Modulators of peripheral 5-HT receptors” (Serodus AS, priority 2003, dated 2010)
